Measured values from ChEMBL document CHEMBL1201862, “PubChem BioAssay data set” (2004).
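Following 48 hours of exposure in 96-well plates, responses at five concentrations were used to interpolate endpoints linearly. The concentration for 50% growth inhibition is given as GI50.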 Activity calls are given as the source filed them. No stated cut-off is given here; in the data, active = GI50 up to about 1.1 µM and inactive = higher.

Columns and labels:
Assay in all cases: growth of human tumour cells (NCI), 48 h
ACHN = system: ACHN
UACC-257 = system: UACC-257
HCC 2998 = system: HCC 2998
Hs-578T = system: Hs-578T
OVCAR-4 = system: OVCAR-4
HOP-62 = system: HOP-62
786-0 = system: 786-0
UO-31 = system: UO-31
SK-OV-3 = system: SK-OV-3
MDA-N = system: MDA-N
SW-620 = system: SW-620
SF-295 = system: SF-295
SF-268 = system: SF-268
LOX IMVI = system: LOX IMVI
HOP-92 = system: HOP-92
DU-145 = system: DU-145
T47D = system: T47D
OVCAR-5 = system: OVCAR-5
OVCAR-3 = system: OVCAR-3
NCI/ADR-RES = system: NCI/ADR-RES
K562 = system: K562
NCI-H23 = system: NCI-H23
SNB-19 = system: SNB-19
HT-29 = system: HT-29
OVCAR-8 = system: OVCAR-8
PC-3 = system: PC-3
KM12 = system: KM12
COLO 205 = system: COLO 205
U-251 = system: U-251
HL-60 = system: HL-60
MCF7 = system: MCF7
SNB-75 = system: SNB-75
CAKI-1 = system: CAKI-1
MDA-MB-231 = system: MDA-MB-231
MDA-MB-435 = system: MDA-MB-435
NCI-H522 = system: NCI-H522
RPMI-8226 = system: RPMI-8226
SF-539 = system: SF-539
NCI-H460 = system: NCI-H460
SK-MEL-28 = system: SK-MEL-28
IGROV-1 = system: IGROV-1
MOLT-4 = system: MOLT-4
Malme-3M = system: Malme-3M
M14 = system: M14
TK-10 = system: TK-10
SK-MEL-2 = system: SK-MEL-2
HCT-116 = system: HCT-116
SN12C = system: SN12C
A498 = system: A498
A549 = system: A549
CCRF-CEM = system: CCRF-CEM
UACC-62 = system: UACC-62
SK-MEL-5 = system: SK-MEL-5
EKVX = system: EKVX
NCI-H226 = system: NCI-H226
RXF 393 = system: RXF 393
HCT-15 = system: HCT-15
SR = system: SR

Question: How did the GI50 (ACHN) turn out when `Oc1ccc(Cl)cc1CN1CCN(Cc2cc(Cl)ccc2O)C1` was run?
Answer: 465 nM (active)

Question: What about the GI50 (UACC-257) of the same compound?
Answer: 1.86 µM (inactive)

Question: And the GI50 (HCC 2998)?
Answer: 1.03 µM (active)

Question: What about the GI50 (Hs-578T) of the same compound?
Answer: 3.82 µM (inactive)

Question: What about the GI50 (OVCAR-4) of the same compound?
Answer: 1.3 µM (inactive)

Question: And the GI50 (HOP-62)?
Answer: 0.617 µM (active)

Question: What about the GI50 (786-0) of the same compound?
Answer: 203 nM (active)

Question: What about the GI50 (UO-31) of the same compound?
Answer: 0.536 µM (active)

Question: And the GI50 (SK-OV-3)?
Answer: 2.3 µM (inactive)

Question: And the GI50 (MDA-N)?
Answer: 1.79 µM (inactive)

Question: And the GI50 (SW-620)?
Answer: 0.547 µM (active)

Question: What about the GI50 (SF-295) of the same compound?
Answer: 0.682 µM (active)

Question: What about the GI50 (SF-268) of the same compound?
Answer: 1.09 µM (active)

Question: And the GI50 (LOX IMVI)?
Answer: 489 nM (active)

Question: What about the GI50 (HOP-92) of the same compound?
Answer: 1.15 µM (inactive)

Question: And the GI50 (DU-145)?
Answer: 1.92 µM (inactive)

Question: What about the GI50 (T47D) of the same compound?
Answer: 1.84 µM (inactive)

Question: What about the GI50 (OVCAR-5) of the same compound?
Answer: 5.09 µM (inactive)

Question: And the GI50 (OVCAR-3)?
Answer: 0.367 µM (active)

Question: What about the GI50 (NCI/ADR-RES) of the same compound?
Answer: 152 nM (active)

Question: What about the GI50 (K562) of the same compound?
Answer: 1.39 µM (inactive)

Question: What about the GI50 (NCI-H23) of the same compound?
Answer: 1.19 µM (inactive)

Question: What about the GI50 (SNB-19) of the same compound?
Answer: 2.86 µM (inactive)

Question: What about the GI50 (HT-29) of the same compound?
Answer: 1.87 µM (inactive)

Question: What about the GI50 (OVCAR-8) of the same compound?
Answer: 525 nM (active)

Question: And the GI50 (PC-3)?
Answer: 206 nM (active)

Question: And the GI50 (KM12)?
Answer: 1.08 µM (active)

Question: What about the GI50 (COLO 205) of the same compound?
Answer: 1.45 µM (inactive)

Question: And the GI50 (U-251)?
Answer: 1.11 µM (active)

Question: What about the GI50 (HL-60) of the same compound?
Answer: 2.02 µM (inactive)

Question: What about the GI50 (MCF7) of the same compound?
Answer: 10.5 µM (inactive)

Question: What about the GI50 (SNB-75) of the same compound?
Answer: 1.52 µM (inactive)

Question: What about the GI50 (CAKI-1) of the same compound?
Answer: 1.88 µM (inactive)

Question: And the GI50 (MDA-MB-231)?
Answer: 0.403 µM (active)

Question: And the GI50 (MDA-MB-435)?
Answer: 1.33 µM (inactive)

Question: What about the GI50 (NCI-H522) of the same compound?
Answer: 3.31 µM (inactive)

Question: And the GI50 (RPMI-8226)?
Answer: 2.27 µM (inactive)

Question: And the GI50 (SF-539)?
Answer: 946 nM (active)

Question: What about the GI50 (NCI-H460) of the same compound?
Answer: 0.218 µM (active)

Question: And the GI50 (SK-MEL-28)?
Answer: 1.65 µM (inactive)

Question: And the GI50 (IGROV-1)?
Answer: 1.89 µM (inactive)

Question: What about the GI50 (MOLT-4) of the same compound?
Answer: 0.174 µM (active)

Question: And the GI50 (Malme-3M)?
Answer: 2.17 µM (inactive)

Question: And the GI50 (M14)?
Answer: 0.553 µM (active)

Question: And the GI50 (TK-10)?
Answer: 1.55 µM (inactive)

Question: What about the GI50 (SK-MEL-2) of the same compound?
Answer: 1.73 µM (inactive)

Question: And the GI50 (HCT-116)?
Answer: 234 nM (active)

Question: What about the GI50 (SN12C) of the same compound?
Answer: 1.11 µM (active)

Question: And the GI50 (A498)?
Answer: 16 µM (inactive)

Question: What about the GI50 (A549) of the same compound?
Answer: 1.75 µM (inactive)

Question: And the GI50 (CCRF-CEM)?
Answer: 0.0603 µM (active)

Question: What about the GI50 (UACC-62) of the same compound?
Answer: 1.85 µM (inactive)

Question: And the GI50 (SK-MEL-5)?
Answer: 973 nM (active)

Question: What about the GI50 (EKVX) of the same compound?
Answer: 1.57 µM (inactive)

Question: What about the GI50 (NCI-H226) of the same compound?
Answer: 1.39 µM (inactive)

Question: And the GI50 (RXF 393)?
Answer: 0.895 µM (active)

Question: `N=c1[nH]cnc2c1nnn2C1C=CC(COS(N)(=O)=O)C1` (stereo unspecified) was tested. Which GI50 (ACHN) did it give?
Answer: 4650 nM (inactive)

Question: What about the GI50 (UACC-257) of the same compound?
Answer: 14.7 µM (inactive)

Question: What about the GI50 (HCC 2998) of the same compound?
Answer: 6.53 µM (inactive)

Question: And the GI50 (Hs-578T)?
Answer: 1.87 µM (inactive)

Question: What about the GI50 (OVCAR-4) of the same compound?
Answer: 6.84 µM (inactive)

Question: What about the GI50 (HOP-62) of the same compound?
Answer: 9.91 µM (inactive)

Question: What about the GI50 (786-0) of the same compound?
Answer: 2190 nM (inactive)

Question: What about the GI50 (UO-31) of the same compound?
Answer: 5.62 µM (inactive)

Question: And the GI50 (SK-OV-3)?
Answer: 24.6 µM (inactive)

Question: What about the GI50 (MDA-N) of the same compound?
Answer: 3.94 µM (inactive)

Question: And the GI50 (SW-620)?
Answer: 11.6 µM (inactive)

Question: And the GI50 (SF-295)?
Answer: 16.7 µM (inactive)

Question: What about the GI50 (SF-268) of the same compound?
Answer: 10.7 µM (inactive)

Question: What about the GI50 (LOX IMVI) of the same compound?
Answer: 4560 nM (inactive)

Question: And the GI50 (DU-145)?
Answer: 7.08 µM (inactive)

Question: And the GI50 (T47D)?
Answer: 3.94 µM (inactive)

Question: What about the GI50 (OVCAR-5) of the same compound?
Answer: 3.37 µM (inactive)

Question: And the GI50 (OVCAR-3)?
Answer: 10.7 µM (inactive)

Question: And the GI50 (NCI/ADR-RES)?
Answer: 5200 nM (inactive)

Question: What about the GI50 (K562) of the same compound?
Answer: 5.47 µM (inactive)

Question: What about the GI50 (NCI-H23) of the same compound?
Answer: 1.95 µM (inactive)

Question: What about the GI50 (SNB-19) of the same compound?
Answer: 4.56 µM (inactive)

Question: What about the GI50 (HT-29) of the same compound?
Answer: 7.33 µM (inactive)

Question: And the GI50 (OVCAR-8)?
Answer: 2380 nM (inactive)

Question: What about the GI50 (PC-3) of the same compound?
Answer: 3930 nM (inactive)

Question: What about the GI50 (HCT-15) of the same compound?
Answer: 6.5 µM

Question: And the GI50 (KM12)?
Answer: 9.68 µM (inactive)

Question: What about the GI50 (COLO 205) of the same compound?
Answer: 3.59 µM (inactive)

Question: What about the GI50 (U-251) of the same compound?
Answer: 4.15 µM (inactive)

Question: What about the GI50 (HL-60) of the same compound?
Answer: 3.42 µM (inactive)

Question: And the GI50 (MCF7)?
Answer: 10.4 µM (inactive)

Question: What about the GI50 (SNB-75) of the same compound?
Answer: 4.05 µM (inactive)

Question: What about the GI50 (CAKI-1) of the same compound?
Answer: 1.25 µM (inactive)

Question: And the GI50 (MDA-MB-231)?
Answer: 8.07 µM (inactive)

Question: What about the GI50 (MDA-MB-435) of the same compound?
Answer: 4.24 µM (inactive)

Question: What about the GI50 (RPMI-8226) of the same compound?
Answer: 3.59 µM (inactive)

Question: And the GI50 (SF-539)?
Answer: 1850 nM (inactive)

Question: What about the GI50 (NCI-H460) of the same compound?
Answer: 6.87 µM (inactive)

Question: What about the GI50 (SK-MEL-28) of the same compound?
Answer: 3.21 µM (inactive)

Question: What about the GI50 (IGROV-1) of the same compound?
Answer: 14.4 µM (inactive)

Question: What about the GI50 (MOLT-4) of the same compound?
Answer: 15.6 µM (inactive)

Question: What about the GI50 (Malme-3M) of the same compound?
Answer: 15.8 µM (inactive)

Question: And the GI50 (M14)?
Answer: 7 µM (inactive)

Question: And the GI50 (TK-10)?
Answer: 3.18 µM (inactive)

Question: What about the GI50 (SK-MEL-2) of the same compound?
Answer: 3.01 µM (inactive)

Question: What about the GI50 (HCT-116) of the same compound?
Answer: 5240 nM (inactive)

Question: And the GI50 (SN12C)?
Answer: 15.9 µM (inactive)

Question: What about the GI50 (A549) of the same compound?
Answer: 10.5 µM (inactive)

Question: And the GI50 (CCRF-CEM)?
Answer: 13.2 µM (inactive)

Question: And the GI50 (UACC-62)?
Answer: 3.37 µM (inactive)

Question: And the GI50 (SK-MEL-5)?
Answer: 3130 nM (inactive)

Question: And the GI50 (EKVX)?
Answer: 28.9 µM (inactive)

Question: And the GI50 (NCI-H226)?
Answer: 4.43 µM (inactive)

Question: What about the GI50 (RXF 393) of the same compound?
Answer: 8.45 µM (inactive)

Question: And the GI50 (SR)?
Answer: 18 µM (inactive)
